Measured values reported in patent publication US8039493B2, “Biaryl sulfonamide derivatives” (Hoffmann-La Roche Inc., priority 2008, dated 2011).

How the values were obtained:
human LXR alpha = target: T1, human LXR alpha (Homo sapiens, UniProt Q13133); assay: Radioligand binding assay (scintillation proximity), LXRα-LBD; conditions: LXRα-LBD on SPA beads, read-out: LXRalpha Binding IC50
T1 construct: human LXR alpha (aa 164 to 447); made in house; host or cells: E. coli BL21 (pLysS)
T1 sequence (Q13133 164-447): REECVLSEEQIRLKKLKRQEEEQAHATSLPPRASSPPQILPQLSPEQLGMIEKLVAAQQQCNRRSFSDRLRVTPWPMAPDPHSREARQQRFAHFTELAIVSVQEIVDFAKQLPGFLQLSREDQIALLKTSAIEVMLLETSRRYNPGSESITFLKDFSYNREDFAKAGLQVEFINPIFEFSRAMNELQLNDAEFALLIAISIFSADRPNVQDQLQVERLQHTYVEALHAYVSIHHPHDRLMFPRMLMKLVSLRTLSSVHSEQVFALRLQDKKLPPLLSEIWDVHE
Protocol: (§1) The following tests were carried out in order to determine the activity of the compounds of the present invention. […] Mammalian expression vectors were constructed to express full-length human LXR alpha and LXR beta. […] To accomplish this, the portions of the sequences encoding the LBDs were amplified from the full-length clones by PCR and then subcloned into the plasmid vectors.
(§2) Induction, expression, and purification of LBD proteins were performed in E. coli strain BL21 (pLysS) cells by standard methods (Ref: Current Protocols in Molecular Biology, Wiley Press, edited by Ausubel et al).
(§3) Radioligand Binding Assay
(§4) LXR alpha and LXR beta receptor binding were assayed in buffer consisting of 50 mM HEPES, pH 7.4, 10 mM NaCl, 5 mM MgCl2. For each 96-well reaction, 500 ng of LXRα-LBD or 700 ng of LXR beta-LBD proteins were bound to 80 μg or 40 μg SPA beads respectively, in a final volume of 50 μl by shaking. The resulting slurry was incubated for 1 h at RT and centrifuged for 2 min at 1300×g. The supernatant containing unbound protein was removed, and the semi-dry pellet containing the receptor-coated beads was re-suspended in 50 μl of buffer. Radioligand (eg. 100,000 dpm of (N-(2,2,2-trifluoroethyl)-N-[4-(2,2,2-trifluoro-1-hydroxy-1-trifluoromethylethyl)-phenyl]-benzenesulfonamide)) was added, and the reaction incubated at RT for 1 h in the presence of test compounds, and then scintillation proximity counting was performed. All binding assays were performed in 96-well plates and the amount of bound ligand was measured on a Packard TopCount using OptiPlates (Packard). Dose response curves were measured within a range of concentration from 10^−10 M to 10^−4 M.

human LXR beta = target: T2, human LXR beta (Homo sapiens, UniProt P55055); assay: Radioligand binding assay (scintillation proximity), LXR beta-LBD; conditions: LXR beta-LBD on SPA beads, read-out: LXRbeta Binding IC50
T2 construct: human LXR beta (aa 155 to 460); made in house; host or cells: E. coli BL21 (pLysS)
T2 sequence (P55055 155-460): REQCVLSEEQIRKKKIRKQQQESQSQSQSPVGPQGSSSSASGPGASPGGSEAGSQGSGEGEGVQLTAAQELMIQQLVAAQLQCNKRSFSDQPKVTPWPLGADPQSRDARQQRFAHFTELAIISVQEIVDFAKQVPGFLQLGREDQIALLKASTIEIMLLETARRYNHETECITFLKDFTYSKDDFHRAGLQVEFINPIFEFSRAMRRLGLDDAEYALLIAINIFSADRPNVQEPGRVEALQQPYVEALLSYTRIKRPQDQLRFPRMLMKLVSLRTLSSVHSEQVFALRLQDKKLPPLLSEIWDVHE
Protocol: as §1, §2, §3, §4

Row | SMILES | IC50 (human LXR alpha) | IC50 (human LXR beta)
1 | CC(C)S(=O)(=O)N(Cc1ccc(F)cc1)Cc1cccc(-c2cccc(S(C)(=O)=O)c2)c1 [Example 53, Propane-2-sulfonic acid (4-fluoro-benzyl)-(3′-methanesulfonyl-biphenyl-3-ylmethyl)-amide] | 2.8 µM | 0.255 µM
2 | CC(C)CN(Cc1cc(-c2cccc(S(N)(=O)=O)c2)cs1)S(=O)(=O)c1ccccc1Cl [Example 54, 2-Chloro-N-isobutyl-N-[4-(3-aminosulfonyl-phenyl)-thiophen-2-ylmethyl]-benzenesulfonamide] | 0.0845 µM | 0.0074 µM
3 | CC(C)CN(Cc1cc(-c2cncc(S(C)(=O)=O)c2)cs1)S(=O)(=O)c1ccccc1Cl [Example 55, 2-Chloro-N-isobutyl-N-[4-(5-methanesulfonyl-pyridin-3-yl)-thiophen-2-ylmethyl]-benzenesulfonamide] | 2.53 µM | 0.083 µM
4 | CC(C)CN(Cc1cc(-c2cccc(S(=O)(=O)NC(C)(C)C)c2)cs1)S(=O)(=O)c1ccccc1Cl [Example 56, 2-Chloro-N-isobutyl-N-[4-(3-tert-butylaminosulfonyl-phenyl)-thiophen-2-ylmethyl]-benzenesulfonamide] | 17.7 µM | 39.1 µM
5 | CC(C)CN(Cc1ccc(-c2cccc(S(C)(=O)=O)c2)s1)S(=O)(=O)CC1CCCCC1 [Example 58, C-Cyclohexyl-N-isobutyl-N-[5-(3-methanesulfonyl-phenyl)-thiophen-2-ylmethyl]-methanesulfonamide] | 31.7 µM | 1.34 µM
